Data reported in a compilation of properties of binary mixtures (doi:10.1021/acs.jpcb.9b10454).

Assay: xn = mol fraction of the nth substance listed
Conditions: 303.15 K, 100 kPa

Q: Which results are given for CCn1cc[nH+]c1.O=S(=O)([N-]S(=O)(=O)C(F)(F)F)C(F)(F)F + c1c[nH]cn1?
A: electrical conductivity (x1 = 0.194): 0.891 S/m; viscosity (x1 = 0.252): 20.7 mPa·s; viscosity (x1 = 0.333): 23 mPa·s; electrical conductivity (x1 = 0.385): 0.616 S/m; viscosity (x1 = 0.501): 25.3 mPa·s; electrical conductivity (x1 = 0.597): 0.587 S/m; viscosity (x1 = 0.601): 25.6 mPa·s; viscosity (x1 = 0.671): 27.7 mPa·s; electrical conductivity (x1 = 0.79): 0.556 S/m; viscosity (x1 = 0.802): 24.3 mPa·s; electrical conductivity (x1 = 0.889): 0.512 S/m; viscosity (x1 = 0.901): 26.7 mPa·s; viscosity (x1 = 1): 38.8 mPa·s
